pIC50: −log10 of the molar value. “And” between values parts separate entries of the source, which are not always exact repeats. Equal values may be shown once.
How the values were obtained:
[1] = molecular target: T1, UGT enzymes of human liver microsomes; experiment: Inhibition of 7-HFC glucuronidation in human liver microsomes; assay type: biochemical; conditions: for % of control metabolism (SD, n = 3), 7-HFC glucuronidation: human liver microsomes 100 μg/ml
T1 construct: percentage of control metabolism, 7-HFC glucuronidation; percentage of control metabolism, 7-HFC glucuronidation

[2] = tested on: UGT enzymes of human liver microsomes; experiment: Inhibition of raloxifene glucuronidation (G1, G2) in human liver microsomes; assay type: biochemical; conditions: for % of control metabolism (SD, n = 3), raloxifene glucuronide G1 / % of control metabolism (SD, n = 3), raloxifene glucuronide G2: human liver microsomes 250 μg/ml, 15 min
Source text: Compounds were eluted using a binary solvent gradient system. […] Solvent B was methanol. […] Detection was at 280 nm.

[3] = molecular target: T2, UGT1A3 (Homo sapiens, UniProt P35503); experiment: Inhibition of raloxifene glucuronidation by recombinant UGT1A3 Supersomes; conditions: human; for activity at 15 min, 25 µM: inhibitor 25 μM; for activity at 15 min, 50 µM: inhibitor 50 μM
T2 sequence (P35503 29-534): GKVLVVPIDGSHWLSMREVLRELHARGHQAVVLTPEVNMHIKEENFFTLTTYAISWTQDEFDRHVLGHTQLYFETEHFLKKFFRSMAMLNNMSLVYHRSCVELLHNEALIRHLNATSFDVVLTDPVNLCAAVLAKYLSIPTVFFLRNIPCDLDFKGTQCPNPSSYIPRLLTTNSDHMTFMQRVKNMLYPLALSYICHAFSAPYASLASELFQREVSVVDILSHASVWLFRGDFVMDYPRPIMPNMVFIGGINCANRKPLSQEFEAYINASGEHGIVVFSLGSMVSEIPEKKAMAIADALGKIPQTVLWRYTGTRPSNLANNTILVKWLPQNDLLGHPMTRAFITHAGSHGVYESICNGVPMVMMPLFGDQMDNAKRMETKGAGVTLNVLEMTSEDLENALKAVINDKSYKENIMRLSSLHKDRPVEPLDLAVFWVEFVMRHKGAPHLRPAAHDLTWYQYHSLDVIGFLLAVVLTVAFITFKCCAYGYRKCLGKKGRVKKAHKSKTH
Description: Compounds were eluted using a binary solvent gradient system. Solvent A was water brought to pH 8 with NH4OH. Solvent B was methanol. Solvent flow rate was 1 ml/min and the column temperature was maintained at 50° C. Detection was at 280 nm. […] The system was then returned to the initial conditions and equilibrated for 3 min.

[4] = molecular target: T3, UGT enzymes of human liver microsomes (Homo sapiens, UniProt P16662); experiment: Inhibition of zidovudine glucuronidation in human liver microsomes; assay type: biochemical; conditions: liver lot 062101
T3 construct: residual metabolism (percentage of control), zidovudine glucuronidation; other: liver lot 062101; residual metabolism (percentage of control), zidovudine glucuronidation; residual metabolism (percentage of control)
T3 sequence (P16662 1-529): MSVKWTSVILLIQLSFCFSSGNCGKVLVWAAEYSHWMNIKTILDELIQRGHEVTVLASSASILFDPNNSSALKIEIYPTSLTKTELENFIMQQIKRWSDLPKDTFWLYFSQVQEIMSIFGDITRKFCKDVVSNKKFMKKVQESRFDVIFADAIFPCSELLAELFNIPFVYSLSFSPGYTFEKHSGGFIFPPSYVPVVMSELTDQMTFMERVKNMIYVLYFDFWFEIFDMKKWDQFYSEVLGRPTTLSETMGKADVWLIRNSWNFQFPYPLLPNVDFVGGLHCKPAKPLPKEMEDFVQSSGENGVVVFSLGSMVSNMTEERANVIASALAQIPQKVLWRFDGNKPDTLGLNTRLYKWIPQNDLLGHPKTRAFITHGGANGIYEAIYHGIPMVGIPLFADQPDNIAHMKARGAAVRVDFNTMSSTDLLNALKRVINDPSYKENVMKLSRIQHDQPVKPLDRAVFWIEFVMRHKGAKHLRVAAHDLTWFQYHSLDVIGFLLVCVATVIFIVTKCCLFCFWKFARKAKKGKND
Description: Compounds were eluted using a binary solvent gradient system where solvent A was dilute phosphoric acid (pH 3) and solvent B was acetonitrile.
Standardized incubations utilized 500 μM zidovudine substrate, 1 mg/ml microsomal protein, 5 mM UDPGA and a 30 min incubation time. […] Int.

[5] = molecular target: T4, UGT1A9 (Homo sapiens, UniProt O60656); experiment: Inhibition of raloxifene glucuronidation by recombinant UGT1A9 Supersomes; conditions: for activity at 15 min, 25 µM / activity at 15 min, 50 µM: human, Supersomes with recombinant human UGT1A9, pH 7.5, probe raloxifene 50 μM; for Inhibition of raloxifene glucuronidation, UGT1A9, second line per inhibitor (G2): second line (G2, metabolite not given), raloxifene 50 μM, 250 μg/ml Supersomes, 1 mM UDPGA, 15 min
T4 sequence (O60656 26-530): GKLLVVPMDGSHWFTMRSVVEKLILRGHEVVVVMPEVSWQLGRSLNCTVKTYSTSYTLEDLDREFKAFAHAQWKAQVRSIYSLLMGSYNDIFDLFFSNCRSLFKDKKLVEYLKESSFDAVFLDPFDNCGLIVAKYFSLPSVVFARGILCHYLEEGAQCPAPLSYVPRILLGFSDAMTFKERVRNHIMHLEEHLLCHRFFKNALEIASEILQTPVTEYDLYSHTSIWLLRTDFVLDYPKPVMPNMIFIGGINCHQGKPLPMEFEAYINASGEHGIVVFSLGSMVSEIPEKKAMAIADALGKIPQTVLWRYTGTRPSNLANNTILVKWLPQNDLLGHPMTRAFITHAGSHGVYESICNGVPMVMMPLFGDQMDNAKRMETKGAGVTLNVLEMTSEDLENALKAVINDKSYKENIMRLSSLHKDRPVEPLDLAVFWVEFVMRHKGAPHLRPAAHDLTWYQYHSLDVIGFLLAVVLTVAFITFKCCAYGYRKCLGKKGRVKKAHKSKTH

[6] = inhibitor 10 μM, raloxifene 50 μM
[7] = inhibitor 25 μM, raloxifene 50 μM
[8] = inhibitor 50 μM, raloxifene 50 μM
[9] = inhibitor 100 μM, raloxifene 50 μM
[10] = inhibitor 500 μM, raloxifene 50 μM
[11] = liver lot 032101, inhibitor 50 μM
[12] = liver lot 062101, inhibitor 50 μM
[13] = liver lot 083000, inhibitor 50 μM
[14] = raloxifene 50 μM, inhibitor 10 μM
[15] = raloxifene 50 μM, inhibitor 25 μM
[16] = raloxifene 50 μM, inhibitor 50 μM
[17] = raloxifene 50 μM, inhibitor 100 μM
[18] = Supersomes with recombinant human UGT1A3, pH 7.5, probe raloxifene 50 μM, formation of glucuronide G1, % of control metabolism, raloxifene G1, UGT1A3
[19] = Supersomes with recombinant human UGT1A3, pH 7.5, probe raloxifene 50 μM, formation of glucuronide G2, % of control metabolism, raloxifene G2, UGT1A3
[20] = recombinant UGT1A3 Supersomes, pH 7.5, probe raloxifene 50 μM (formation of glucuronide G1), Inhibition of raloxifene glucuronidation, G1, UGT1A3, G1, raloxifene 50 μM, 250 μg/ml Supersomes, 1 mM UDPGA, 15 min
[21] = recombinant UGT1A3 Supersomes, pH 7.5, probe raloxifene 50 μM (formation of glucuronide G2), Inhibition of raloxifene glucuronidation, G2, UGT1A3, G2, raloxifene 50 μM, 250 μg/ml Supersomes, 1 mM UDPGA, 15 min

O=C(O[C@@H]1Cc2c(O)cc(O)cc2O[C@H]1c1cc(O)c(O)c(O)c1)c1cc(O)c(O)c(O)c1 [Gallocatechin gallate]
pIC50 ([1]; 7-HFC 50 μM, 1 mM UDPGA, 15 min): 4.00 | percentage of control metabolism, 7-HFC glucuronidation ([1]; inhibitor 25 μM): 80 (2) % | % of control metabolism (SD, n = 3), 7-HFC glucuronidation ([1]; inhibitor 25 μM, 7-HFC 50 μM, 15 min): 80 (2) % | percentage of control metabolism, 7-HFC glucuronidation ([1]; inhibitor 50 μM): 68 (2) % | % of control metabolism (SD, n = 3), 7-HFC glucuronidation ([1]; inhibitor 50 μM, 7-HFC 50 μM, 15 min): 68 (2) % | percentage of control metabolism, 7-HFC glucuronidation ([1]; inhibitor 100 μM): 54 (1) % and 46 (2) % | % of control metabolism (SD, n = 3), 7-HFC glucuronidation ([1]; inhibitor 100 μM, 7-HFC 50 μM, 15 min): 54 (1) % and 46 (2) % | percentage of control metabolism, 7-HFC glucuronidation ([1]; inhibitor 200 μM): 25 (0) % | % of control metabolism (SD, n = 3), 7-HFC glucuronidation ([1]; inhibitor 200 μM, 7-HFC 50 μM, 15 min): 25 (0) % | percentage of control metabolism, 7-HFC glucuronidation ([1]; inhibitor 500 μM): 0 (0) % | % of control metabolism (SD, n = 3), 7-HFC glucuronidation ([1]; inhibitor 500 μM, 7-HFC 50 μM, 15 min): 0 (0) % | % of control metabolism (SD, n = 3), raloxifene glucuronide G1 [2, 6]: 80 (6) % | % of control metabolism (SD, n = 3), raloxifene glucuronide G1 [2, 7]: 62 (7) % | % of control metabolism (SD, n = 3), raloxifene glucuronide G1 [2, 8]: 45 (2) % | % of control metabolism (SD, n = 3), raloxifene glucuronide G1 [2, 9]: 20 (1) % | % of control metabolism (SD, n = 3), raloxifene glucuronide G1 [2, 10]: 0 (0) % | % of control metabolism (SD, n = 3), raloxifene glucuronide G2 [2, 6]: 83 (4) % | % of control metabolism (SD, n = 3), raloxifene glucuronide G2 [2, 7]: 64 (4) % | % of control metabolism (SD, n = 3), raloxifene glucuronide G2 [2, 8]: 47 (2) % | % of control metabolism (SD, n = 3), raloxifene glucuronide G2 [2, 9]: 29 (1) % | % of control metabolism (SD, n = 3), raloxifene glucuronide G2 [2, 10]: 0 (0) % | % of control metabolism, raloxifene G1 [2, 11]: 29 (1) % | % of control metabolism, raloxifene G2 [2, 11]: 28 (0) % | % of control metabolism, raloxifene G1 [2, 12]: 40 (3) % | % of control metabolism, raloxifene G2 [2, 12]: 22 (1) % | % of control metabolism, raloxifene G1 [2, 13]: 45 (2) % | % of control metabolism, raloxifene G2 [2, 13]: 47 (2) % | % of control metabolism, raloxifene G1 [2, 14]: 80 (6) % | % of control metabolism, raloxifene G2 [2, 14]: 83 (4) % | % of control metabolism, raloxifene G1 [2, 15]: 62 (7) % | % of control metabolism, raloxifene G2 [2, 15]: 64 (4) % | % of control metabolism, raloxifene G1 [2, 16]: 45 (2) % | % of control metabolism, raloxifene G2 [2, 16]: 47 (2) % | % of control metabolism, raloxifene G1 [2, 17]: 20 (1) % | % of control metabolism, raloxifene G2 [2, 17]: 29 (1) % | activity at 15 min, 25 µM [3, 18]: 65% | activity at 15 min, 50 µM [3, 18]: 39% | activity at 15 min, 25 µM [3, 19]: 70% | activity at 15 min, 50 µM [3, 19]: 38% | activity at 15 min, 25 µM [3, 20]: 64% | activity at 15 min, 50 µM [3, 20]: 39% | activity at 15 min, 25 µM [3, 21]: 70% | activity at 15 min, 50 µM [3, 21]: 38% | residual metabolism (percentage of control), zidovudine glucuronidation ([4]; inhibitor 50 μM): 66 (3) % | residual metabolism (percentage of control), zidovudine glucuronidation ([4]; inhibitor 100 μM): 56 (1) % and 59 (3) % | residual metabolism (percentage of control), zidovudine glucuronidation ([4]; inhibitor 200 μM): 49 (1) % and 40 (2) % | activity at 15 min, 25 µM ([5]; formation of glucuronide G1, % of control metabolism, raloxifene G1, UGT1A9, inhibitor 25 μM): 72% | activity at 15 min, 50 µM ([5]; formation of glucuronide G1, % of control metabolism, raloxifene G1, UGT1A9, inhibitor 50 μM): 47% | activity at 15 min, 25 µM ([5]; formation of glucuronide G2, % of control metabolism, raloxifene G2, UGT1A9, inhibitor 25 μM): 63% | activity at 15 min, 50 µM ([5]; formation of glucuronide G2, % of control metabolism, raloxifene G2, UGT1A9, inhibitor 50 μM): 44% | Inhibition of raloxifene glucuronidation, UGT1A9, second line per inhibitor (G2) ([5]; inhibitor 25 μM): 63 (4) | Inhibition of raloxifene glucuronidation, UGT1A9, second line per inhibitor (G2) ([5]; inhibitor 50 μM): 44 (2)
